Results reported in US12606568B2, “SMARCA degraders and uses thereof” (Kymera Therapeutics, Inc., priority 2020, dated 2026).

Experiments:
Type in all cases: cell-based
SMARCA4 = molecular target: T1, SMARCA4 (Homo sapiens, UniProt P51532); assay: SMARCA4 Western blot MV4-11 degradation; conditions: for Dmax: MV4-11, MV4-11 cells, read-out: SMARCA4 MSD MV411 degradation 24 h: average Dmax %; for Dmax / DC50: 24 h; for DC50: read-out: SMARCA4 MSD MV411 degradation 24 h: Mean external-Abs DC50
T1 construct: SMARCA2 and SMARCA4 protein degradation in MV4-11 cells; endogenous in cells; host or cells: MV4-11
Description: Example 54. SMARCA2 and SMARCA 4 Western Blot MV4-11 Degradation
Cells were seeded into 6-well plates (MV4-11: 4×10^6 cells/well/1 ml) and 1 ml of 2× compound solution was added into the well to make the final concentration and the plates were mixed well and incubated for 24 hours (No cytotoxicity was observed). The cell were collected with media and spun at 3000 rpm for 5 minutes. The supernatant was aspirated and the well and the cells were washed with cold PBS once and combined for centrifugation again; the supernatant aspirated again. 200 ul pre-chilled RIPA lysis buffer (Boston BioProducts BP-115D) with protease/phosphatase inhibitor (Roche 05892791001/Roche 04906837001) was directly added into the tube to lyze the cells for 20 minutes on ice. The cell lysate were collected into EP tubes and spun at 13000 rpm for 20 minutes and 72 ul supernatant was transferred to a fresh EP tube containing 18 ul of 5× loading buffer (Beyotime Bio P0015) to make the loading samples. The samples were heated to 100° C. for 10 minutes and cooled to RT and microcentrifuged. 20 ul of samples were loaded onto SDS-PAGE gel (Novex, WG1402BOX) and the gel was run at 80 V for 20 minutes and 120 V for 1.5 hours. The samples were electrotransfer to a NC membrane using wet-transfer method with 250 mA for 2.5 hours. The membrane was blocked with LICOR blocking buffer (LI-COR, 927-50000) for 1 hour. The membrane was washed three times with TBST (CST #9997S), 5 minutes each. Incubation was performed with primary antibody prepared in blocking buffer with 0.1% Tween-20 (Solarbio, P8220) at 4° C. overnight (Anti-SMARCA2/BRM antibody (ab15597) 1:500; Anti-BRG1 antibody [EPR3912] (ab108318) 1:1000; Rabbit anti-Baf180 antibody [EPR15860] (Abcam, ab196022) 1:1000; mouse anti-beta-Actin (8H10D10) (CST #3700) 1:10000). The membrane was washed three times with TBST, 5 minutes each. Incubation with secondary antibody was performed for 1 hour at RT (anti-rabbit IgG (Licor, 926-32211) 1:5000; anti-mouse IgG (LI-COR, 926-68070) 1:5000). The membrane was washed three times with TBST, 5 minutes each and lastly the LiCOR was read.
(§1) The letter codes for SMARCA degradation potency (DC50) include: A (<100 nM), B (100-500 nM), C (501-1000 nM), and D (>1000 nM). The letter codes for the percentage of SMARCA degradation after 24 hours (Dmax %) include: A (>90% degradation), B (>70-90% degradation), C (50-70% degradation), and D (<50% degradation).

SMARCA2 [1] = molecular target: T2, SMARCA2 (Homo sapiens, UniProt P51531); assay: MSD SMARCA2 degradation in A549 cell line; set-up: endogenous in cells; conditions: for Dmax: A549, A549 cells; for Dmax / DC50: 24 h; for DC50: read-out: SMARCA2 MSD A549 degradation 24 h: Average external-Abs DC50
Description: Example 53. MSD SMARCA2 Degradation in A549 Cell Line
Cells were seeded into 96-well plates (A549 cells: 2×10^4 cells/well/100 ul media) abd incubated overnight. The next day, 200 nl compound were added into the intermediate plate with Echo (Labcyte 550) from source plate containing a 3-fold serial dilution from top concentration of 1 mM. The culture medium was changed with 80 ul of fresh medium and 80 ul of 2× compound solution was added into the well to make a final concentration of 1000 nM, 333.3 nM, 111.1 nM, 37.04 nM, 12.35 nM, 4.115 nM, 1.372 nM, 0.457 nM, 0.152 nM and 0 nM (DMSO). The wells were mixed and then incubated for 24 hours. The media was aspirated from the cultures and 60 ul pre-chilled PIPA lysis buffer (Boston BioProducts BP-115D) with protease/phosphatase inhibitor (Roche 05892791001/Roche 04906837001) was added into the well to lyze the cells for 20 minutes at 4° C. The MSD plate (L15XA) was coated with 40 ul cell lysate and incubated at 4° C. overnight. The next day, the plate was washed three times with TBST (CST #9997S), 150 ul/well. The MSD plates was blocked with 150 ul blocking buffer per well and shaked for 1 hr at R^†, 600 rpm. The blocking buffer was 3% Blocker A (MSD, R93BA-4) in TBST. The MSD plate was washed three times with 150 ul/well of TBST and 25 ul/well of detection antibody (Rabbit anti-SMARCA2/BRM antibody, 100 μg/ml, ab223735) was added at final concentration of 1 ug/mi diluted in 1% o Blocking buffer and shaken for 1 hour at R^†, 600 rpm. The MSD plate was washed three times with 150 ul/well of TBST and 25 ul/well of SULFO-TAG anti-rabbit antibody (MSD, R32AB-1) was added at final concentration of 1 μg/ml diluted in […] Blocking buffer and shaken for 1 hour at R^†, 600 rpm. The MSD plate was washed three times with 150 ul/well of TBST and 150 ul/well of 2×MSD reading buffer diluted from 4× (MSD, R92TC-2) with water was added. Lastly, the MSD instrument was read.
as §1, with “SMARCA2” for “SMARCA”, “% o)” for “%)”, “(>90% o” for “(>90%”, “(>70-90% o” for “(>70-90%”, “(50-70% o” for “(50-70%”

SMARCA2 [2] = molecular target: T2, SMARCA2; assay: SMARCA2 Western blot MV4-11 degradation; set-up: SMARCA2 and SMARCA4 protein degradation in MV4-11 cells; endogenous in cells; host or cells: MV4-11; conditions: for Dmax: MV4-11, MV4-11 cells, read-out: SMARCA2 MSD MV411 degradation 24 h: average Dmax %; for Dmax / DC50: 24 h; for DC50: read-out: SMARCA2 MSD MV411 degradation 24 h: Mean external-Abs DC50

T1 sequence (P51532 whole entry): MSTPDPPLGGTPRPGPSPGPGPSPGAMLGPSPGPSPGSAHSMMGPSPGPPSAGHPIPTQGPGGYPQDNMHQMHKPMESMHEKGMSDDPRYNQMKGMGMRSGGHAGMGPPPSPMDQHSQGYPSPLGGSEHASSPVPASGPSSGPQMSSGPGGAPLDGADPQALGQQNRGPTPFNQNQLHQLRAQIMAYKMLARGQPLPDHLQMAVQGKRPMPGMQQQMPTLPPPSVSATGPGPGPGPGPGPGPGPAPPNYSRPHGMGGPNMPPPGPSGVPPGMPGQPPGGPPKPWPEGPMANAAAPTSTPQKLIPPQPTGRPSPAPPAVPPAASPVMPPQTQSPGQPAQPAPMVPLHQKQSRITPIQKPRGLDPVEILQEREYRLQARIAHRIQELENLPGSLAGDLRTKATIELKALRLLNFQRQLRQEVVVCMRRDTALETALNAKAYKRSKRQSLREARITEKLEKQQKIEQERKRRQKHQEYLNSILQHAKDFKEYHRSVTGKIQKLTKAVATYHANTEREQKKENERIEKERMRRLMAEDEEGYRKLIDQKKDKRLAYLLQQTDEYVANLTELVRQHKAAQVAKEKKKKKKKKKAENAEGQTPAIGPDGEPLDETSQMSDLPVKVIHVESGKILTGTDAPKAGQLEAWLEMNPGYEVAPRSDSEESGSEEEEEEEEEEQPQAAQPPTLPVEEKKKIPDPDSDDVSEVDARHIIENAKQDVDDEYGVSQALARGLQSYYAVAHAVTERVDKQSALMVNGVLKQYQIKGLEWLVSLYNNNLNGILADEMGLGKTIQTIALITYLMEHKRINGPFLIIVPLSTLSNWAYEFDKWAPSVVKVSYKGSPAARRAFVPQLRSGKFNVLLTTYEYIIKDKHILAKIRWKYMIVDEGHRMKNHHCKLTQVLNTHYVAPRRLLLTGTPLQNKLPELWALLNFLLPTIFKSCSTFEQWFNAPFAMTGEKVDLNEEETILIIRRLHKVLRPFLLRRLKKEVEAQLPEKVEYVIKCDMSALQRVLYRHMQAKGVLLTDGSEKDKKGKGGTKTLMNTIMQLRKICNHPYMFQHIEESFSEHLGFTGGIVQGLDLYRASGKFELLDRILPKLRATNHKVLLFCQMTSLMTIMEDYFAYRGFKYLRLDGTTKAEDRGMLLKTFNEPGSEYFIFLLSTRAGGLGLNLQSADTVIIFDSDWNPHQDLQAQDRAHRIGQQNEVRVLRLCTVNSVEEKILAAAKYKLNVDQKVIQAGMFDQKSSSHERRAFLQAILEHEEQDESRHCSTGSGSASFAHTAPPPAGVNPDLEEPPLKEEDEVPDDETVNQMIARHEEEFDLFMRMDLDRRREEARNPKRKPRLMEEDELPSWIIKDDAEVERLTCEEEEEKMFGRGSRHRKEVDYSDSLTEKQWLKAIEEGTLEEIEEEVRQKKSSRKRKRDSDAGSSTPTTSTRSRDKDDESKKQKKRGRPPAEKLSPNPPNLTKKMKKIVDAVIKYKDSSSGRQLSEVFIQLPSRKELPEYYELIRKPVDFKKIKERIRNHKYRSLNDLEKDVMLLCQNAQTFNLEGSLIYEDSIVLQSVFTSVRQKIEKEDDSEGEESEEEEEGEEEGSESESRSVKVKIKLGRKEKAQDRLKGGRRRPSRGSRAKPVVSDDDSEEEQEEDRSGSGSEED
T2 sequence (P51531 whole entry): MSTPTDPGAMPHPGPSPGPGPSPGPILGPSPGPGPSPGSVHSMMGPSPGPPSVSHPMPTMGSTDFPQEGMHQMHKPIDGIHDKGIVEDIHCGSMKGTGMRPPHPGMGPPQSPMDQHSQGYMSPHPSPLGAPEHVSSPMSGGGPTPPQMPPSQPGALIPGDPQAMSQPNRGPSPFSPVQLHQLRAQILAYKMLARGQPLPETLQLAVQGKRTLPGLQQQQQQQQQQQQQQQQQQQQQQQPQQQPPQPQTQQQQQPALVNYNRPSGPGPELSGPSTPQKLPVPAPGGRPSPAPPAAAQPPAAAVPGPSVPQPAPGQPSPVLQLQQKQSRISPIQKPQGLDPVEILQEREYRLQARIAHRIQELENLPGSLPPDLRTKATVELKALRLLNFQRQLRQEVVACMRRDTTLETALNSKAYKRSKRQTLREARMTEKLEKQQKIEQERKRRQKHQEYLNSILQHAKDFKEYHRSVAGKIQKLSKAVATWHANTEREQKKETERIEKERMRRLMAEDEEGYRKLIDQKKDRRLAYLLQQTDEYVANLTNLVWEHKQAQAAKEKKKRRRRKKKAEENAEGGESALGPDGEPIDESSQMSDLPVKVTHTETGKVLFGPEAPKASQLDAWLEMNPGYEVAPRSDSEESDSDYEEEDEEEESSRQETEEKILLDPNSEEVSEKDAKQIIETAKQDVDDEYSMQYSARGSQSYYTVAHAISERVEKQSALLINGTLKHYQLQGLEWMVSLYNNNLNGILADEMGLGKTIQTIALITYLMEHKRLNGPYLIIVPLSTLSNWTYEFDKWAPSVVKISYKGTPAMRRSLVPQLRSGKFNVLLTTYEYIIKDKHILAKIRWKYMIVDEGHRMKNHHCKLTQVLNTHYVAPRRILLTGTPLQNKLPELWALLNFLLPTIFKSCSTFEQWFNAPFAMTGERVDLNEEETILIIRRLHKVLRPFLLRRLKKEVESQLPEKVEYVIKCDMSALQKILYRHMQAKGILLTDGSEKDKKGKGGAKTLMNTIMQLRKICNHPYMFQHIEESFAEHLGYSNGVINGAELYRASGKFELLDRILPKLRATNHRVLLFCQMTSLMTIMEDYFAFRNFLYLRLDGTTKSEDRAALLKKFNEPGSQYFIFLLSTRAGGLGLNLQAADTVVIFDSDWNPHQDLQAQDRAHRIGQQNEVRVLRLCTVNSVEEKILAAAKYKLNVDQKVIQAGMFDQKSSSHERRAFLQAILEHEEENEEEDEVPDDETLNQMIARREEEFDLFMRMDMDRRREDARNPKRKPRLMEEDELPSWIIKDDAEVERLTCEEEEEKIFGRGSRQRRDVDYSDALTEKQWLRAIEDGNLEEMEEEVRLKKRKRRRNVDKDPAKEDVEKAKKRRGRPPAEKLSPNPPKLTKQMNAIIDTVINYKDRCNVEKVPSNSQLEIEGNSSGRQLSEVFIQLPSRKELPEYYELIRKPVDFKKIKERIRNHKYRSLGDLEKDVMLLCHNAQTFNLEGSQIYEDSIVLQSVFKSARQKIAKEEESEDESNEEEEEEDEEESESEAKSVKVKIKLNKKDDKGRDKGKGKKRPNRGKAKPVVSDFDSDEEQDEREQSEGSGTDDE

Compound	Dmax (SMARCA4) [%]	DC50 (SMARCA4; MV4-11 cells) [nM]	Dmax (SMARCA2 [1]) [%]	DC50 (SMARCA2 [1]; A549 cells) [nM]	Dmax (SMARCA2 [2]) [%]	DC50 (SMARCA2 [2]; MV4-11 cells) [nM]	SMARCA4 MSD MV411 degradation 24 h: average Dmax % (SMARCA4; MV4-11 cells)	SMARCA2 MSD A549 degradation 24 h: Average Dmax % (SMARCA2 [1]; A549 cells)	SMARCA2 MSD MV411 degradation 24 h: average Dmax % (SMARCA2 [2]; MV4-11 cells)
Cc1ncsc1-c1ccc([C@H](C)NC(=O)[C@@H]2C[C@@H](O)CN2C(=O)[C@@H](NC(=O)[C@H]2CCC3(CC2)C[C@H](N2CCC(c4cnc(N5C6CCC5CN(c5cc(-c7ccccc7O)nnc5N)C6)nc4)CC2)C3)C(C)(C)C)cc1 (stereo in doubt) [I-15, (2S,4S)-1-((2S)-2-(2-(4-(2-(3-(3-amino-6-(2-hydroxyphenyl)pyridazin-4-yl)-3,8-diazabicyclo[3.2.1]octan-8-yl)pyrimidin-5-yl)piperidin-1-yl)spiro[3.5]nonane-7-carboxamido)-3,3-dimethylbutanoyl)-4-hydroxy-N—((S)-1-(4-(4-methylthiazol-5-yl)phenyl)ethyl)pyrrolidine-2-carboxamide]	50 to 70	> 1000	> 90	100 to 500	> 90	< 100			
Cc1ncsc1-c1ccc(CNC(=O)[C@@H]2C[C@@H](O)CN2C(=O)[C@@H](NC(=O)C2CC3(C2)CN(C2CCC(c4cnc(N5C6CCC5CN(c5cc(-c7ccccc7O)nnc5N)C6)nc4)CC2)C3)C(C)(C)C)cc1 (stereo partly drawn) [I-7, 2-(4-(2-(3-(3-amino-6-(2-hydroxyphenyl)pyridazin-4-yl)-3,8-diazabicyclo[3.2.1]octan-8-yl)pyrimidin-5-yl)cyclohexyl)-N—((S)-1-((2S,4R)-4-hydroxy-2-((4-(4-methylthiazol-5-yl)benzyl)carbamoyl)pyrrolidin-1-yl)-3,3-dimethyl-1-oxobutan-2-yl)-2-azaspiro[3.3]heptane-6-carboxamide]	< 50	> 1000	70 to 90	501 to 1000	70 to 90	< 100			
Cc1ncsc1-c1ccc(CNC(=O)[C@@H]2C[C@@H](O)CN2C(=O)[C@@H](NC(=O)C2CC3(C2)CN(C2CCN(c4cnc(N5C6CCC5CN(c5cc(-c7ccccc7O)nnc5N)C6)nc4)CC2)C3)C(C)(C)C)cc1 [I-10, 2-(1-(2-(3-(3-amino-6-(2-hydroxyphenyl)pyridazin-4-yl)-3,8-diazabicyclo[3.2.1]octan-8-yl)pyrimidin-5-yl)piperidin-4-yl)-N—((S)-1-((2S,4R)-4-hydroxy-2-((4-(4-methylthiazol-5-yl)benzyl)carbamoyl)pyrrolidin-1-yl)-3,3-dimethyl-1-oxobutan-2-yl)-2-azaspiro[3.3]heptane-6-carboxamide]	< 50	> 1000	70 to 90	501 to 1000	70 to 90	< 100			
Cc1ncsc1-c1ccc(CNC(=O)[C@@H]2C[C@@H](O)CN2C(=O)[C@@H](NC(=O)[C@H]2CC3(C2)C[C@H](N2CC4(CN(c5cnc(N6C7CCC6CN(c6cc(-c8ccccc8O)nnc6N)C7)nc5)C4)C2)C3)C(C)(C)C)cc1 (stereo partly drawn) [I-11, (2S,4R)-1-((2S)-2-(6-(6-(2-(3-(3-amino-6-(2-hydroxyphenyl)pyridazin-4-yl)-3,8-diazabicyclo[3.2.1]octan-8-yl)pyrimidin-5-yl)-2,6-diazaspiro[3.3]heptan-2-yl)spiro[3.3]heptane-2-carboxamido)-3,3-dimethylbutanoyl)-4-hydroxy-N-(4-(4-methylthiazol-5-yl)benzyl)pyrrolidine-2-carboxamide]	< 50	> 1000	70 to 90	100 to 500	70 to 90	< 100			
Cc1ncsc1-c1ccc(CNC(=O)[C@@H]2C[C@@H](O)CN2C(=O)[C@@H](NC(=O)[C@H]2CC3(C2)C[C@H](N2CC4(CN(c5cnc(N6C7CCC6CN(c6cc(-c8ccccc8O)nnc6N)C7)nc5)C4)C2)C3)C(C)(C)C)cc1 (stereo partly drawn) [I-12, (2S,4R)-1-((2S)-2-(6-(6-(2-(3-(3-amino-6-(2-hydroxyphenyl)pyridazin-4-yl)-3,8-diazabicyclo[3.2.1]octan-8-yl)pyrimidin-5-yl)-2,6-diazaspiro[3.3]heptan-2-yl)spiro[3.3]heptane-2-carboxamido)-3,3-dimethylbutanoyl)-4-hydroxy-N-(4-(4-methylthiazol-5-yl)benzyl)pyrrolidine-2-carboxamide]		> 1000		100 to 500		< 100			
Cc1ncsc1-c1ccc(CNC(=O)[C@@H]2C[C@@H](O)CN2C(=O)[C@@H](NC(=O)[C@H]2CC3(CC[C@H](N4CCC(c5cnc(N6C7CCC6CN(c6cc(-c8ccccc8O)nnc6N)C7)nc5)CC4)CC3)C2)C(C)(C)C)cc1 (stereo partly drawn) [I-13]	70 to 90	> 1000	> 90	< 100	70 to 90	< 100			
Cc1ncsc1-c1ccc(CNC(=O)[C@@H]2C[C@@H](O)CN2C(=O)[C@@H](NC(=O)[C@H]2CC3(CC[C@H](N4CCC(c5cnc(N6C7CCC6CN(c6cc(-c8ccccc8O)nnc6N)C7)nc5)CC4)CC3)C2)C(C)(C)C)cc1 (stereo partly drawn) [I-14, (2S,4R)-1-((2S)-2-(7-(4-(2-(3-(3-amino-6-(2-hydroxyphenyl)pyridazin-4-yl)-3,8-diazabicyclo[3.2.1]octan-8-yl)pyrimidin-5-yl)piperidin-1-yl)spiro[3.5]nonane-2-carboxamido)-3,3-dimethylbutanoyl)-4-hydroxy-N-(4-(4-methylthiazol-5-yl)benzyl)pyrrolidine-2-carboxamide]		> 1000		< 100		< 100	B (B (>70-90% degradation))	B (B (>70-90% o degradation))	B (B (>70-90% degradation))
